Holding throughout (experiment): Antifungal susceptibility, MIC by broth macro-dilution method
The test system of one assay is C. albicans (ATCC 24433). Type of assay: cell-based, Candida albicans. The following applies: end points after 48 hours, NI till x = no inhibition up to x; for MIC: Candida albicans, ATCC24433, RPMI 1640 medium with MOPS buffer, read-out: MIC against fungi, C. albicans (ATCC 24433); for MIC against fungi, C. albicans (ATCC 24433): RPMI 1640 medium with MOPS buffer. As to the method:
(§1) In vitro evaluation of antifungal activity was performed by determining the minimum inhibitory concentration (MIC). Anti-fungal susceptibility testing of these anti-fungal compounds was done by broth dilution method using RPMI 1640 medium with MOPS buffer. Known anti-fungal agents like fluconazole and amphotericin-B were used as positive control. End points were determined after 48 hours visually and by using spectrophotometer wherever necessary. Different dilutions were, tried and various sets of experiments performed.

Another assay relates to A. niger (ATCC 16404). Type of assay: cell-based, Aspergillus niger. As to conditions: end points after 48 hours, NI till x = no inhibition up to x; for MIC: Aspergillus niger, ATCC16404, RPMI 1640 medium with MOPS buffer, read-out: MIC against fungi, A. niger (ATCC 16404); for MIC against fungi, A. niger (ATCC 16404): RPMI 1640 medium with MOPS buffer. As for the experimental part:
as §1

Assay [1] has as its system F. proliferatum (ATCC 10052). Type of assay: cell-based, Fusarium proliferatum. As to conditions: end points after 48 hours, NI till x = no inhibition up to x; for MIC: Fusarium proliferatum, ATCC10052, RPMI 1640 medium with MOPS buffer, read-out: MIC against fungi, F. proliferatum (ATCC 10052); for MIC against fungi, F. proliferatum (ATCC 10052): RPMI 1640 medium with MOPS buffer. As for the experimental part: as §1

In brackets after ≈: the same amount, converted by molar mass.

Regarding `CCCCCCc1sc2ncn(CC(O)(Cn3cncn3)c3ccc(F)cc3F)c(=O)c2c1C` (stereo not drawn) [Compound 1-A10, 3-[2-(2,4-Difluorophenyl)-2-hydroxy-3-[1,2,4]-triazol-1-yl-propyl]-6-n-hexyl-5-methyl-thieno[2,3-d]pyrimidin-4(3H)-one], the MIC (usually the least concentration at which growth counts as inhibited) in the assay on C. albicans (ATCC 24433) is 1 to 2 µg/mL (≈ 2.05 to 4.1 µM); with A. niger (ATCC 16404), > 2 µg/mL; in assay [1], > 2 µg/mL.
As to `CCCCCc1sc2ncn(CC(O)(Cn3cncn3)c3ccc(F)cc3F)c(=O)c2c1C` (stereo not drawn) [Compound 1-A11, 3-[2-(2,4-Difluorophenyl)-2-hydroxy-3-[1,2,4]triazol-1-yl-propyl]-5-methyl-6-npentyl-thieno[2,3-d]pyrimidin-4(3H)-one], in the assay on C. albicans (ATCC 24433), the “MIC against fungi, C. albicans (ATCC 24433)” value (from here on “MIC against fungi, C. albicans”) fell in the range of 1 to 2 µg/mL. In addition, the “MIC against fungi, A. niger (ATCC 16404)” value in the assay with A. niger (ATCC 16404) is “NI till 2 μg/ml”. In addition, the “MIC against fungi, F. proliferatum (ATCC 10052)” value (“MIC against fungi … (ATCC 10052)” for short) in assay [1] is reported as “NI till 2 μg/ml”.
Regarding `CC(=O)OCCCCCCCc1cc2c(=O)n(CC(O)(Cn3cncn3)c3ccc(F)cc3F)cnc2s1` (stereo not drawn) [Compound 1-A12, 6-(7-Acetoxyheptyl)-3-[2-(2,4-difluorophenyl)-2-hydroxy-3-[1,2,4]-triazol-1-ylpropyl]-thieno[2,3-d]pyrimidin-4(3H)-one], the results for the MIC (with C. albicans (ATCC 24433); with A. niger (ATCC 16404); in assay [1]) were 0.12 to 0.25 µg/mL (≈ 0.22 to 0.458 µM), > 2 µg/mL and > 2 µg/mL, respectively.
Regarding `O=c1c2cc(CCCCCCCO)sc2ncn1CC(O)(Cn1cncn1)c1ccc(F)cc1F` (stereo not drawn) [Compound 1-A13, 3-[2-(2,4-Difluorophenyl)-2-hydroxy-3-[1,2,4]triazol-1-yl-propyl]-6-(7-hydroxyheptyl)-thieno[2,3-d]pyrimidin-4(3H)-one], the MIC with C. albicans (ATCC 24433) is 0.12 to 0.25 µg/mL (≈ 0.238 to 0.496 µM); with A. niger (ATCC 16404), > 16 µg/mL; in assay [1] it was > 16 µg/mL.
Regarding `O=c1c2c(CCc3ccccc3)csc2ncn1CC(O)(Cn1cncn1)c1ccc(F)cc1F` (stereo not drawn) [Compound 1-A14, 3-[2-(2,4-Difluorophenyl)-2-hydroxy-3-[1,2,4]triazol-1-yl-propyl]-5(2-phenylethyl)-thieno[2,3-d]pyrimidin-4(3H)-one], the MIC was 0.5 to 1 µg/mL (≈ 1.01 to 2.03 µM) in the assay with C. albicans (ATCC 24433), > 2 µg/mL with A. niger (ATCC 16404) and > 2 µg/mL in assay [1].
`Cc1c(Cc2ccccc2)sc2ncn(CC(O)(Cn3cncn3)c3ccc(F)cc3F)c(=O)c12` (stereo not drawn) [Compound 1-A15, 6-Benzyl-3-[2-(2,4-difluorophenyl)-2-hydroxy-3-[1,2,4]-triazol-1-yl-propyl]-5-methyl-thieno[2,3-d]pyrimidin-4(3H)-one]: the MIC is 1 to 2 µg/mL (≈ 2.03 to 4.05 µM) in the assay on C. albicans (ATCC 24433), > 4 µg/mL in the assay on A. niger (ATCC 16404) and > 4 µg/mL in assay [1].
For the compound `CCCCCCCCCCc1cc2c(=O)n(CC(O)(Cn3cncn3)c3ccc(F)cc3F)cnc2s1` (stereo not drawn) [Compound 1-A16, 6-n-Decyl-3-[2-(2,4-difluorophenyl)-2-hydroxy-3-[1,2,4]triazol-1-yl-propyl]thieno[2,3-d]pyrimidin-4(3H)-one], the MIC is 1 to 2 µg/mL (≈ 1.89 to 3.78 µM) in the assay on C. albicans (ATCC 24433), > 2 µg/mL in the assay with A. niger (ATCC 16404) and > 2 µg/mL in assay [1].
Turning to `CCCCCCCCCc1cc2c(=O)n(CC(O)(Cn3cncn3)c3ccc(F)cc3F)cnc2s1` (stereo not drawn) [Compound 1-A17, 3-[2-(2,4-Difluorophenyl)-2-hydroxy-3-[1,2,4]-triazol-1-yl-propyl]-6-n-nonylthieno[2,3-d]pyrimidin-4(3H)-one], the figures for the MIC (in the assay on C. albicans (ATCC 24433); in the assay with A. niger (ATCC 16404); in assay [1]) were 0.25 to 0.5 µg/mL (≈ 0.485 to 0.97 µM), > 4 µg/mL and > 4 µg/mL, respectively.
With `CCCc1cc2c(=O)n(CC(O)(Cn3cncn3)c3ccc(F)cc3F)cnc2s1` (stereo not drawn) [Compound 1-A18, 3-[2-(2,4-Difluorophenyl)-2-hydroxy-3-[1,2,4]-triazol-1-yl-propyl]-6-(n-propyl)-thieno[2,3-d]pyrimidin-4(3H)-one], the MIC in the assay with C. albicans (ATCC 24433) is 0.06 to 0.12 µg/mL (≈ 0.139 to 0.278 µM); in the assay on A. niger (ATCC 16404) it was > 32 µg/mL; in assay [1] it was > 32 µg/mL.
On to `O=c1c2c3c(sc2ncn1CC(O)(Cn1cncn1)c1ccc(F)cc1F)CCCCCCCCCC3` (stereo not drawn) [Compound 1-A19, 3-[2-(2,4-Difluorophenyl)-2-hydroxy-3-[1,2,4]-triazol-1-yl-propyl]3,5,6,7,8,9,10,11,12,13,14-undecahydrocyclododeca[4,5]thieno[2,3-d]pyrimidin-4(3H)-one], for which, in the assay on C. albicans (ATCC 24433), the “MIC against fungi, C. albicans” value was “NI till 2 μg/ml”. Further, the “MIC against fungi, A. niger (ATCC 16404)” value against A. niger (ATCC 16404) was “NI till 2 μg/ml”. For the same compound, the “MIC against fungi … (ATCC 10052)” value in assay [1] is reported as “NI till 2 μg/ml”.
As for `CCc1cc2c(=O)n(CC(O)(Cn3cncn3)c3ccc(F)cc3F)cnc2s1` (stereo not drawn) [Compound 1-A22, 3-[2-(2,4-Difluorophenyl)-2-hydroxy-3-[1,2,4]triazol-1-yl-propyl]-6-ethylthieno[2,3-d]pyrimidin-4(3H)-one], the MIC with C. albicans (ATCC 24433) was 0.06 to 0.12 µg/mL (≈ 0.144 to 0.287 µM); with A. niger (ATCC 16404) it was > 16 µg/mL; in assay [1], > 16 µg/mL.
With `O=c1c2cc(CCCCO)sc2ncn1CC(O)(Cn1cncn1)c1ccc(F)cc1F` (stereo not drawn) [Compound 1-A23, 3-[2-(2,4-Difluorophenyl)-2-hydroxy-3-[1,2,4]-triazol-1-yl-propyl]-6-(4-hydroxybutyl)-thieno[2,3-d]pyrimidin-4(3H)-one], the MIC is 1 to 2 µg/mL (≈ 2.17 to 4.33 µM) in the assay on C. albicans (ATCC 24433), > 64 µg/mL in the assay with A. niger (ATCC 16404) and > 64 µg/mL in assay [1].
As for `CC(C)(C)OC(=O)NCC(=O)OCCCCc1cc2c(=O)n(CC(O)(Cn3cncn3)c3ccc(F)cc3F)cnc2s1` (stereo not drawn) [Compound 1-A24, 3-[2-(2,4-Difluorophenyl)-2-hydroxy-3-[1,2,4]triazol-1-yl-propyl]-6-(4-N-Bocaminoacetyloxybutyl)-thieno[2,3-d]pyrimidin-4(3H)-one], the “MIC against fungi, C. albicans” value with C. albicans (ATCC 24433) was 0.5 to 1 µg/mL. Further, in the assay on A. niger (ATCC 16404), the “MIC against fungi, A. niger (ATCC 16404)” value is “NI till 16 μg/ml”. The “MIC against fungi … (ATCC 10052)” value in assay [1] is recorded as “NI till 16 μg/ml”.
`NCC(=O)OCCCCc1cc2c(=O)n(CC(O)(Cn3cncn3)c3ccc(F)cc3F)cnc2s1` (stereo not drawn) [Compound 1-A25, 3-[2-(2,4-Difluorophenyl)-2-hydroxy-3-[1,2,4]-triazol-1-yl-propyl]-6-(4-aminoacetyloxybutyl)-thieno[2,3-d]pyrimidin-4(3H)-one]: the results for the MIC (with C. albicans (ATCC 24433); in the assay with A. niger (ATCC 16404); in assay [1]) were 4 to 8 µg/mL (≈ 7.71 to 15.4 µM), > 8 µg/mL and > 8 µg/mL, respectively.
As for `CC(=O)OCCCc1cc2c(=O)n(CC(O)(Cn3cncn3)c3ccc(F)cc3F)cnc2s1` (stereo not drawn) [Compound 1-A26, 3-[2-(2,4-Difluorophenyl)-2-hydroxy-3-[1,2,4]-triazol-1-yl-propyl]-6-(3-acetoxypropyl)-thieno[2,3-d]pyrimidin-4(3H)-one], the MIC with C. albicans (ATCC 24433) was 1 to 2 µg/mL (≈ 2.04 to 4.09 µM); with A. niger (ATCC 16404), > 64 µg/mL; in assay [1], > 64 µg/mL.
Regarding `O=c1c2cc(CCCO)sc2ncn1CC(O)(Cn1cncn1)c1ccc(F)cc1F` (stereo not drawn) [Compound 1-A27, 3-[2-(2,4-Difluorophenyl)-2-hydroxy-3-[1,2,4]-triazol-1-yl-propyl]-6-(3-hydroxypropyl)-thieno[2,3-d]pyrimidin-4(3H)-one], the values for the MIC (in the assay with C. albicans (ATCC 24433); with A. niger (ATCC 16404); in assay [1]) were 2 to 4 µg/mL (≈ 4.47 to 8.94 µM), > 128 µg/mL and > 128 µg/mL, respectively.
As to `Cc1cc2c(=O)n(CC(O)(Cn3cncn3)c3ccc(F)cc3F)cnc2s1` (stereo not drawn) [Compound 1-A28, 3-[2-(2,4-Difluorophenyl)-2-hydroxy-3-[1,2,4]-triazol-1-yl-propyl]-6-methylthieno[2,3-d]pyrimidin-4(3H)-one], the MIC with C. albicans (ATCC 24433) is 0.25 to 0.5 µg/mL (≈ 0.62 to 1.24 µM); in the assay with A. niger (ATCC 16404), > 64 µg/mL; in assay [1], > 64 µg/mL.
Take `OC(Cn1cncn1)(Cn1cncn1)c1ccc(F)cc1F` [Fluconazole, reference compound]: the results for the MIC (in the assay on C. albicans (ATCC 24433); with A. niger (ATCC 16404); in assay [1]) were 0.25 to 1 µg/mL (≈ 0.816 to 3.27 µM), 64 to 128 µg/mL (≈ 209 to 418 µM) and > 128 µg/mL, respectively.

These data come from patent US8324227B2, “Thieno[2,3-D]-pyrimidin-4(3H)-one compounds with antifungal properties and process thereof” (FDC Limited, priority 2008, dated 2012).
